# Test results taken from EP2574339A1, “Pharmaceutical preparation for treating NADH-related illnesses” (Huber, Johannes, priority 2011, dated 2013).
# “Also recorded” adds a separate entry of the source.
# What was measured:
# HeLa S3-Zellen = assay: Cell viability (MTT assay) of HeLa S3 cells; format: cell-based, menschlichen Zellen; settings: for Überleben: FK866 (2 µM), 100 µM metabolite, 96 h, Fig. 3B
# Experimental: (§1) Inhibitoren (2 µM FK866, 2 mM 3-AB, 10 µM NBTI, 2 µM Dipyridamol, 2 mM CMP, 25 µM PPADS, 1 mM Ap4A) oder Metaboliten (100 µM NAD^+, 100 µM NAAD, 100 µM NMN, 100 µM NAMN, 100 µM NA, 100 µM NR) wurden dem Zellkulturmedium zugesetzt, wie angegeben. […] Die Behandlung mit Inhibitoren und Metaboliten wurde für 24-48 h vor der Analyse von PAR Bildung und die Lebensfähigkeit der Zellen durchgeführt (72 h für 293mitoPARP Zellen, 96 h für HeLa S3-Zellen und 120 h für HepG2-Zellen). Die Lebensfähigkeit der Zellen wurde mittels MTT-Assay bestimmt.
# 293mitoPARP Zellen [1] = assay: Cell viability (MTT assay) of 293mitoPARP cells; format: cell-based, menschlichen Zellen; settings: for Zell-Überleben: FK866 (2 µM), 100 µM metabolite, 72 h, Fig. 3A
# Experimental: as §1
# menschlichen Zellen [2] = assay: Mitochondrial NAD+ generation / PAR formation from extracellular precursors with inhibitors, cell line not stated; format: cell-based; settings: for Funktion von NMN als extrazellulärer NAD^+-Vorläufer: NMN as precursor in presence of nucleoside transporter inhibitor (2 µM Dipyridamol, 10 µM NBTI); for NR-Nutzung: NR as precursor, nucleoside transporter inhibitor added
# 293mitoPARP Zellen [3] = assay: Mitochondrial NAD+ content by PAR formation (mitoPARP) in 293mitoPARP cells; format: cell-based, menschlichen Zellen; settings: NamPRT inhibited by FK866 (2 µM), 100 µM metabolite in the medium, Fig. 3A
# Experimental: Inhibitoren (2 µM FK866, 2 mM 3-AB, 10 µM NBTI, 2 µM Dipyridamol, 2 mM CMP, 25 µM PPADS, 1 mM Ap4A) oder Metaboliten (100 µM NAD^+, 100 µM NAAD, 100 µM NMN, 100 µM NAMN, 100 µM NA, 100 µM NR) wurden dem Zellkulturmedium zugesetzt, wie angegeben. NR wurde wie beschrieben bereitgestellt (Dölle et al., Anal. Biochem. 385 (2009), 377-379). Die Behandlung mit Inhibitoren und Metaboliten wurde für […] vor der Analyse von PAR Bildung und die Lebensfähigkeit der Zellen durchgeführt (72 h für 293mitoPARP Zellen, 96 h für HeLa S3-Zellen und 120 h für HepG2-Zellen). Die Lebensfähigkeit der Zellen wurde mittels MTT-Assay bestimmt.
# Es wurden 293mitoPARP Zellen bereitgestellt, die ein Fusionsprotein exprimieren ("mitoPARP"), bestehend aus EGFP und PARP1cd (poly-ADP-Ribose-Polymerase-1), welches auf die mitochondriale Matrix abgezielt wurde. Mit mitochondrialem NAD^+ als Substrat generieren diese Zellen konstitutiv Protein-gebundenes PAR (Protein-gebundene poly-ADP-Ribose), welches immunchemisch visualisiert wird. Variationen im Umfang der erfassten PAR spiegeln damit Veränderungen des mitochondrialen NAD^+-Gehaltes wider. Ebenso wurde die transiente Expression von mitoPARP in HepG2 und HeLa S3 Zellen verwendet.
# Ein PAR-Signal hängt sowohl von der katalytischen Aktivität von mitoPARP als auch von der Anwesenheit von NAD^+ ab. Folglich erlaubt die mitoPARP-Expression die Erkennung von Änderungen im mitochondrialen NAD^+-Gehalt.
# HeLa S3 Zellen = assay: Mitochondrial NAD+ content by PAR formation (transient mitoPARP) in HeLa S3 cells; format: cell-based, menschlichen Zellen; settings: FK866 (2 µM), 100 µM metabolite, Fig. 3B
# menschlichen Zellen [4] = assay: Cell viability (MTT assay) with extracellular precursors and inhibitors, cell line not stated; format: cell-based
# [5] = NAD^+ as extracellular precursor, competitive NPP substrate added (1 mM Ap4A), effect similar to PPADS
# [6] = NMN as precursor, 2 mM CMP added
# [7] = extracellular NR (100 µM), b59: in Gegenwart von CMP, Fig. 4B
# [8] = NAD^+ as extracellular precursor, inhibitor added (25 µM PPADS), cell line not stated
compound,measurement,setting,value
"Nc1ncnc2c1ncn2[C@@H]1O[C@H](COP(=O)(O)OP(=O)(O)OP(=O)(O)OP(=O)(O)OC[C@H]2O[C@@H](n3cnc4c(N)ncnc43)[C@H](O)[C@@H]2O)[C@@H](O)[C@H]1O [Ap4A, Diadenosintetraphosphat]",Lebensfähigkeit der Zellen,HeLa S3-Zellen; [5],ähnlichen Effekt
same,Lebensfähigkeit der Zellen,293mitoPARP Zellen [1]; [5],ähnlichen Effekt
Nc1ccn([C@@H]2O[C@H](COP(=O)(O)O)[C@@H](O)[C@H]2O)c(=O)n1 [CMP],Zellviabilität,HeLa S3-Zellen; [6],verringert
same,Zellviabilität,293mitoPARP Zellen [1]; [6],verringert
OCCN(CCO)c1nc(N2CCCCC2)c2nc(N(CCO)CCO)nc(N3CCCCC3)c2n1 [Dipyridamol],Funktion von NMN als extrazellulärer NAD^+-Vorläufer,menschlichen Zellen [2]; Fig. 4A,verlor NMN seine Funktion
same,NR-Nutzung,menschlichen Zellen [2]; Fig. 4B,hemmen
O=C(/C=C/c1cccnc1)NCCCCC1CCN(C(=O)c2ccccc2)CC1 [FK866],Nam Nutzung,"menschlichen Zellen [2]; 2 µM FK866, Fig. 3",gehemmt
"O=C(O)c1cccnc1 [NA, Nikotinsäure]",Überleben,HeLa S3-Zellen,Restaurierung des Überlebens
same,Zell-Überleben,293mitoPARP Zellen [1],wiederherstellen
same,mitochondrialer NAD^+-Gehalt (PAR),293mitoPARP Zellen [3],wiederherstellen
"O=C([O-])c1ccc[n+]([C@@H]2O[C@H](COP(=O)(O)O)[C@@H](O)[C@H]2O)c1 [NAMN, Nikotinsäure-Mononukleotid]",Überleben,HeLa S3-Zellen,schützen; also recorded: Restaurierung des Überlebens
same,Zell-Überleben,293mitoPARP Zellen [1],schützen; also recorded: wiederherstellen
same,mitochondrialer NAD^+-Gehalt (PAR),293mitoPARP Zellen [3],unterstützen; also recorded: wiederherstellen
same,mitochondriale NAD^+-Generierung von NAMN,"menschlichen Zellen [2]; NAMN as precursor in presence of CMP, Dipyridamol, NBTI, Fig. 4A","sensitiv gegenüber diesen Inhibitoren, wenn auch weniger stark"
same,mitochondriale NAD^+-Bildung,HeLa S3 Zellen,unterstützen
O=[N+]([O-])c1ccc(CSc2ncnc3c2ncn3[C@@H]2O[C@H](CO)[C@@H](O)[C@H]2O)cc1 [NBTI],Funktion von NMN als extrazellulärer NAD^+-Vorläufer,menschlichen Zellen [2]; Fig. 4A,verlor NMN seine Funktion
same,NR-Nutzung,menschlichen Zellen [2]; Fig. 4B,hemmen
"NC(=O)c1ccc[n+]([C@@H]2O[C@H](COP(=O)([O-])O)[C@@H](O)[C@H]2O)c1 [NMN, Nikotinamid-Mononukleotid]",Überleben,HeLa S3-Zellen,schützen; also recorded: Restaurierung des Überlebens
same,Zell-Überleben,293mitoPARP Zellen [1],schützen; also recorded: wiederherstellen
same,mitochondrialer NAD^+-Gehalt (PAR),293mitoPARP Zellen [3],unterstützen; also recorded: wiederherstellen
same,mitochondriale NAD^+-Bildung,HeLa S3 Zellen,unterstützen
"NC(=O)c1ccc[n+]([C@@H]2O[C@H](CO)[C@@H](O)[C@H]2O)c1 [NR, 1-[3,4-Dihydroxy-5-(hydroxymethyl)oxolan-2-yl]pyridin-5-carboxamid]",mitochondriale PAR-Bildung / mitochondriale NAD^+-Generierung,menschlichen Zellen [2]; [7],unterstützt
same,Zelllebensfähigkeit / Zellviabilität,menschlichen Zellen [4]; [7],unterstützt
Cc1nc(N=Nc2ccc(S(=O)(=O)O)cc2S(=O)(=O)O)c(COP(=O)(O)O)c(C=O)c1O [PPADS],Wiederherstellung des mitochondrialen NAD^+-Pools,menschlichen Zellen [2]; [8],verhindert
same,Überleben der Zelle,menschlichen Zellen [4]; [8],verhindert
